# Data from US20250122174A1 (Shenzhen Yuanli Shenwan Innovative Medicine Co., Ltd., priority 2022, published 2025).
# Biological target: HPK1 (Homo sapiens (Human), UniProt Q92918)
# Assay: HPK1 Inhibition Assay (ADP-Glo kinase assay)
# Assay type: biochemical
# Settings: ATP 10 μM
# Method in brief: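 ADP-Glo luminescence read-out after 1 h room-temperature kinase reaction with 10 μM ATP and 0.1 μg/ml MBP. Recombinant human HPK1 at 7.5 ng/μl; buffer 40 mM Tris pH 7.5, 20 mM MgCl2. Compounds serially diluted 5-fold over 10 points from 10 mM DMSO stock.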
# Sequence of HPK1 (Q92918 1-346 limits assumed): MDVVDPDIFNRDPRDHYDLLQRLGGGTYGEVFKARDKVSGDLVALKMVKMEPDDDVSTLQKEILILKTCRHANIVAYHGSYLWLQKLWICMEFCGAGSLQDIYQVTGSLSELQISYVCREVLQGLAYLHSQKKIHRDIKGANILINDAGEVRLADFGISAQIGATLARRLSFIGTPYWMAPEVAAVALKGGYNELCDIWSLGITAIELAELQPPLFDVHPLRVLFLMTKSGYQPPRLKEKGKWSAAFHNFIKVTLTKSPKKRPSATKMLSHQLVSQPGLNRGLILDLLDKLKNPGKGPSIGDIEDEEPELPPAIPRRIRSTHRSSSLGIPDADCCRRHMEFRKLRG
row,SMILES,IC50
1,"N[C@H]1CN(c2c(NC(=O)c3ccc(=O)n(-c4c(F)cccc4F)n3)ccc3nn(C4CC4)cc23)CC12CC2 [Example 336, (R)-N-(4-(7-amino-5-azaspiro[2.4]heptan-5-yl)-2-cyclopropyl-2H-indazol-5-yl)-1-(2,6-difluorophenyl)-6-oxo-1,6-dihydropyridazine-3-carboxamide]",< 100 nM
2,"Cc1nc2c(N3C[C@H]4C[C@@H]3CN4)c(NC(=O)c3ccc(=O)n(-c4c(F)cccc4F)n3)ccc2n1C [Example 80, N-(4-((1R,4R)-2,5-diazabicyclo[2.2.1]heptan-2-yl)-1,2-dimethyl-1H-benzo[d]imidazol-5-yl)-1-(2,6-difluorophenyl)-6-oxo-1,6-dihydropyridazine-3-carboxamide]",< 100 nM
3,"CC(C)c1nc2c(N3CC[C@@H](N)C3)c(NC(=O)c3ccnn(-c4c(F)cccc4F)c3=O)ccc2n1C [Example 163, (R)-N-(4-(3-aminopyrrolidin-1-yl)-2-isopropyl-1-methyl-1H-benzo[d]imidazol-5-yl)-2-(2,6-difluorophenyl)-3-oxo-2,3-dihydropyridazine-4-carboxamide]",< 100 nM
4,"N#Cc1ccncc1-c1ccc(NC(=O)c2ccc(=O)n(-c3c(F)cccc3F)n2)c(N2CC[C@H](N)C2)c1 [Example 344, (S)-N-(2-(3-aminopyrrolidin-1-yl)-4-(4-cyanopyridin-3-yl)phenyl)-1-(2,6-difluorophenyl)-6-oxo-1,6-dihydropyridazine-3-carboxamide]",< 100 nM
5,"COc1cccc(F)c1-c1nccc(C(=O)Nc2ccc(-c3cnccc3C#N)cc2N2C[C@@H](N)C[C@H]2CO)c1F [Example 13, N-(2-((2S,4S)-4-amino-2-(hydroxymethyl)pyrrolidin-1-yl)-4-(4-cyanopyridin-3-yl)phenyl)-3-fluoro-2-(2-fluoro-6-methoxyphenyl)isonicotinamide]",< 100 nM
6,"Cn1c(C2CC2)nc2c(N3CC[C@@H](N)C3)c(NC(=O)c3ccc(=O)n(-c4c(F)cccc4F)n3)ccc21 [Example 160, (R)-N-(4-(3-aminopyrrolidin-1-yl)-2-cyclopropyl-1-methyl-1H-benzo[d]imidazol-5-yl)-1-(2,6-difluorophenyl)-6-oxo-1,6-dihydropyridazine-3-carboxamide]",< 100 nM
7,"CC(C)(C)n1cc2c(N3C[C@@H](N)C4(CC4)C3)c(NC(=O)c3ccc(=O)n(-c4c(F)cccc4F)n3)ccc2n1 [Example 242, (S)-N-(4-(7-amino-5-azaspiro[2.4]heptan-5-yl)-2-(tert-butyl)-2H-indazol-5-yl)-1-(2,6-difluorophenyl)-6-oxo-1,6-dihydropyridazine-3-carboxamide]",< 100 nM
8,"CCC(C)(C)n1cc2c(N3C[C@H](C)[C@@H](N)C3)c(NC(=O)c3ccc(=O)n(-c4c(F)cccc4F)n3)ccc2n1 [Example 243, N-(4-((3R,4S)-3-amino-4-methylpyrrolidin-1-yl)-2-(tert-pentyl)-2H-indazol-5-yl)-1-(2,6-difluorophenyl)-6-oxo-1,6-dihydropyridazine-3-carboxamide]",< 100 nM
9,"Cn1c(C(C)(C)C(F)(F)F)nc2c(N3CC[C@@H](N)C3)c(NC(=O)c3ccc(=O)n(-c4c(F)cccc4F)n3)ccc21 [Example 158, (R)-N-(4-(3-aminopyrrolidin-1-yl)-1-methyl-2-(1,1,1-trifluoro-2-methylpropan-2-yl)-1H-benzo[d]imidazol-5-yl)-1-(2,6-difluorophenyl)-6-oxo-1,6-dihydropyridazine-3-carboxamide]",< 100 nM
10,"Cc1nc2c(N3CCCC4(CNC4)C3)c(NC(=O)c3ccc(=O)n(-c4c(F)cccc4F)n3)ccc2n1C [Example 84, 1-(2,6-difluorophenyl)-N-(1,2-dimethyl-4-(2,6-diazaspiro[3.5]nonan-6-yl)-1H-benzo[d]imidazol-5-yl)-6-oxo-1,6-dihydropyridazine-3-carboxamide]",100 to 1000 nM
11,"N#Cc1ccncc1-c1ccc(NC(=O)c2ccc(=O)n(-c3c(F)cccc3F)n2)c(N2CC[C@@](N)(CO)C2)c1 (single isomer, unassigned) [Example 356]",< 100 nM
12,"COc1cccc(F)c1-c1nccc(C(=O)Nc2ccc3c(nc(CS(C)(=O)=O)n3C)c2N2CC[C@@H](N)C2)c1F [Example 165, N-(4-((R)-3-aminopyrrolidin-1-yl)-1-methyl-2-((methylsulfonyl)methyl)-1H-benzo[d]imidazol-5-yl)-3-fluoro-2-(2-fluoro-6-methoxyphenyl)isonicotinamide]",< 100 nM
13,"Cn1cc2c(N3CC[C@@H](N)C3)c(NC(=O)c3ccc(=O)n(-c4c(F)cccc4F)n3)ccc2n1 [Example 175, (R)—N-(4-(3-aminopyrrolidin-1-yl)-2-methyl-2H-indazol-5-yl)-1-(2,6-difluorophenyl)-6-oxo-1,6-dihydropyridazine-3-carboxamide]",< 100 nM
14,"N[C@@H]1CCN(c2c(NC(=O)c3ccc(=O)n(-c4c(F)cccc4F)n3)ccc3c2cnn3C2CC2)C1 [Example 301, (R)-N-(4-(3-aminopyrrolidin-1-yl)-1-cyclopropyl-1H-indazol-5-yl)-1-(2,6-difluorophenyl)-6-oxo-1,6-dihydropyridazine-3-carboxamide]",< 100 nM
15,"C[C@@H]1CN(c2c(NC(=O)c3ccc(=O)n(-c4c(F)cccc4F)n3)ccc3c2cnn3C2CC2)C[C@@H]1N [Example 298, N-[4-[(3R,4R)-3-amino-4-methyl-pyrrolidin-1-yl]-1-cyclopropyl-indazol-5-yl]-1-(2,6-difluorophenyl)-6-oxo-pyridazine-3-carboxamide]",< 100 nM
16,"CC(C)Cn1ncc2c(N3CC[C@@H](N)C3)c(NC(=O)c3ccc(=O)n(-c4c(F)cccc4F)n3)ccc21 [Example 294, (R)-N-(4-(3-aminopyrrolidin-1-yl)-1-isobutyl-1H-indazol-5-yl)-1-(2,6-difluorophenyl)-6-oxo-1,6-dihydropyridazine-3-carboxamide]",< 100 nM
17,"CC(C)n1ncc2c(N3C[C@H](N)C4(CC4)C3)c(NC(=O)c3ccc(=O)n(-c4c(F)cccc4F)n3)ccc21 [Example 182, (R)-N-(4-(7-amino-5-azaspiro[2.4]heptan-5-yl)-1-isopropyl-1H-indazol-5-yl)-1-(2,6-difluorophenyl)-6-oxo-1,6-dihydropyridazine-3-carboxamide]",< 100 nM
18,"N[C@H]1CN(c2c(NC(=O)c3ccc(=O)n(-c4c(F)cccc4F)n3)ccc3c2cnn3[C@H]2CCOC2)CC12CC2 [Example 249, 1-(2,6-difluorophenyl)-N-{4-[(7R)-7-amino-5-azaspiro[2.4]heptan-5-yl]-1-[(3S)-tetrahydro-3-furyl]indazol-5-yl}-6-oxo-1,2-diazine-3-carboxamide]",< 100 nM
19,"Cn1c(C(C)(C)C)nc2c(N3CC[C@@](C)(N)C3)c(NC(=O)c3ccc(=O)n(-c4c(F)cccc4F)n3)ccc21 (single isomer, unassigned) [Example 101]",< 100 nM
20,"Cc1nc2c(N3CCC(N)CC3)c(NC(=O)c3ccc(=O)n(-c4c(F)cccc4F)n3)ccc2n1C [Example 74, N-(4-(4-aminopiperidin-1-yl)-1,2-dimethyl-1H-benzo[d] 98 midazole-5-yl)-1-(2,6-difluorophenyl)-6-oxo-1,6-dihydropyridazine-3-carboxamide]",< 100 nM
21,"CC(C)c1nc2c(N3CC[C@](N)(C(F)(F)F)C3)c(NC(=O)c3ccc(=O)n(-c4c(F)cccc4F)n3)ccc2n1C (single isomer, unassigned) [Example 138]",< 100 nM
